Reference: patent publication US20250186373A1, “TARGETING AN EUKARYOTIC INITIATION FACTOR 2 ALPHA KINASE TO REGULATE TRANSLATION UNDER STRESS” (The Johns Hopkins University, priority 2022, published 2025)
Read-outs that look alike come from different tables or passages of the source. Where a SMILES comes first, the peptide text is derived from it. The star is where a group is joined. Cbz = O=C(OCc1ccccc1)*

Experiments:
[1] = biological target: T1, MARK2 (Mus musculus, UniProt Q05512); experiment: cell-based MARK2 kinase activity assay based on eIF2α phosphorylation (immunoblot of MEFs); conditions: for phosphorylation level of eIF2α-51S: FIG. 21B; for activity in inhibiting the phosphorylation of eIF2α: comparison of seven drugs, FIG. 21E
T1 construct: endogenous in cells; host or cells: mouse embryonic fibroblasts (MEFs)
Procedure: Cells were washed twice with 1× PBS and then lysed and harvested on ice in RIPA solution (50 mM Tris-HCl (pH 7.6); 150 mM NaCl; 1% NP-40; 1% SDS; 100 mM sodium fluoride; 17.5 mM β-glycerophosphate; 0.5% sodium deoxycholate; 10% glycerol). The RIPA buffer was supplemented with EDTA-free protease inhibitor cocktail (Roche, USA), phosphatase inhibitor cocktail 2 and phosphatase inhibitor cocktail 3 (Sigma-Aldrich, USA), 1 μM phenylmethanesulfonyl fluoride, and 2 μM sodium orthovanadate. Lysates were kept cold on ice, pulse-sonicated for 10 min, and then centrifuged at 12,000 g at 4° C. for 10 min. The protein content of each sample was determined by a bicinchoninic acid (BCA) assay (Thermo Fisher). Equal amounts of total protein extract were resolved by SDS-PAGE and transferred to nitrocellulose membranes (Millipore HATF08550, USA). The blots were blocked with 5% w/v BSA and 0.05% NaN3 in TBST and incubated with primary antibodies at 4° C. overnight, then finally incubated with appropriate secondary antibodies. The antibodies used include those against eIF2α (Cell Signaling 5324, USA), peIF2α (Cell Signaling 9721), PERK (Cell Signaling 3192), pPERK-^980T (Cell Signaling 3179), PKR (Santa Cruz SC-708 and SC-6282), HRI (Millipore 07-728), GCN2 (Cell Signaling 3302), pGCN2-899T (Abcam ab75836, USA), ATF4 (Cell Signaling 11815), HSP90 (Cell Signaling 8165), HSP70 (Cell Signaling 4872), Flag (Sigma F1804), Actin (Santa Cruz SC-47778), Tubulin (Proteintech 10068-1-AP, USA), PKCδ (Santa Cruz SC-937; Cell Signaling 2058), pPKCδ-311Y (Cell Signaling 2055), pPKCδ-^505T (Cell Signaling 9374), MARK2 (Abcam ab135816; Santa Cruz SC-365405), pMARK2-^595T (Abcam ab34751), PP1a (Cell Signaling 2582), pPP1α-^320T (Cell Signaling 2581), and puromycin (Millipore MABE343). Images were captured with an Odyssey imager and analyzed with Image Studio software (Licor 9120, USA).

[2] = test system: PKCδ-MARK2-eIF2α signaling pathway; format: cell-based, mouse
Procedure: Since the phosphorylation of MARK2 at threonine 595 is required for its positive regulation of eIF2α phosphorylation (FIG. 1E), we asked whether this form of phosphorylated MARK2 is regulated upon cytosolic protein misfolding stress.
The condition of MG132 treatment at 20 μM for 4 h was chosen for optimal induction of eIF2α phosphorylation in the analysis of these MEFs (FIG. 9D). To test whether activation of MARK2 also can be induced by other types of stress, we subjected the cells to oxidative stress, such as sodium arsenite treatment, or ER stress, such as tunicamycin treatment.
Cells were washed twice with 1× PBS and then lysed and harvested on ice in RIPA solution (50 mM Tris-HCl (pH 7.6); 150 mM NaCl; 1% NP-40; 1% SDS; 100 mM sodium fluoride; 17.5 mM β-glycerophosphate; 0.5% sodium deoxycholate; 10% glycerol). The RIPA buffer was supplemented with EDTA-free protease inhibitor cocktail (Roche, USA), phosphatase inhibitor cocktail 2 and phosphatase inhibitor cocktail 3 (Sigma-Aldrich, USA), 1 μM phenylmethanesulfonyl fluoride, and 2 μM sodium orthovanadate. Lysates were kept cold on ice, pulse-sonicated for 10 min, and then centrifuged at 12,000 g at 4° C. for 10 min. The protein content of each sample was determined by a bicinchoninic acid (BCA) assay (Thermo Fisher). Equal amounts of total protein extract were resolved by SDS-PAGE and transferred to nitrocellulose membranes (Millipore HATF08550, USA). The blots were blocked with 5% w/v BSA and 0.05% NaN3 in TBST and incubated with primary antibodies at 4° C. overnight, then finally incubated with appropriate secondary antibodies.

[3] = test system: interaction between PKCδ and HSP90; experiment: coimmunoprecipitation of HSP90 by anti-PKCδ antibody in MEFs; format: cell-based, mouse; conditions: MEF cells treated with MG132
Excerpt: We next investigated how the PKC&-MARK2-eIF2α signaling pathway senses protein misfolding stress. Since misfolded proteins, including SOD1, are prone to interact with molecular chaperone proteins, Wang et al., 2009; Tummala et al., 2005, we reasoned that the upstream regulator PKCδ could potentially interact with a molecular chaperone and that disruption of this interaction by misfolded proteins during proteotoxic stress might be a mechanism to account for the activation of the PKCδ kinase. We searched a protein-protein interaction database, Szklarczyk et al., 2015, and identified several candidate interactors of PKCδ, including HSP90, HSP90a, and HSP70. To evaluate potential interactions between PKCδ and these molecular chaperones, we performed coimmunoprecipitation experiments with endogenous proteins in MEF cells. After immunoprecipitation of PKCδ, only HSP90 was pulled down by PKCδ (FIG. 3A). When the level of PKCδ protein was elevated via stable expression in MEF cells, more HSP90 protein could be coimmunoprecipitated by PKCδ. Conversely, depletion of PKCδ from MEFs or use of an IgG control instead of the anti-PKCδ antibody abolished the coimmunoprecipitation of HSP90, confirming the specific interaction between PKCδ and HSP90 (FIG. 3A). […]

[4] = test system: MARK2; conditions: previous report; cited from earlier work
[5] = WT and 4-KO MEFs, sodium arsenite 200 μM, 1 h

T1 sequence (Q05512 whole entry): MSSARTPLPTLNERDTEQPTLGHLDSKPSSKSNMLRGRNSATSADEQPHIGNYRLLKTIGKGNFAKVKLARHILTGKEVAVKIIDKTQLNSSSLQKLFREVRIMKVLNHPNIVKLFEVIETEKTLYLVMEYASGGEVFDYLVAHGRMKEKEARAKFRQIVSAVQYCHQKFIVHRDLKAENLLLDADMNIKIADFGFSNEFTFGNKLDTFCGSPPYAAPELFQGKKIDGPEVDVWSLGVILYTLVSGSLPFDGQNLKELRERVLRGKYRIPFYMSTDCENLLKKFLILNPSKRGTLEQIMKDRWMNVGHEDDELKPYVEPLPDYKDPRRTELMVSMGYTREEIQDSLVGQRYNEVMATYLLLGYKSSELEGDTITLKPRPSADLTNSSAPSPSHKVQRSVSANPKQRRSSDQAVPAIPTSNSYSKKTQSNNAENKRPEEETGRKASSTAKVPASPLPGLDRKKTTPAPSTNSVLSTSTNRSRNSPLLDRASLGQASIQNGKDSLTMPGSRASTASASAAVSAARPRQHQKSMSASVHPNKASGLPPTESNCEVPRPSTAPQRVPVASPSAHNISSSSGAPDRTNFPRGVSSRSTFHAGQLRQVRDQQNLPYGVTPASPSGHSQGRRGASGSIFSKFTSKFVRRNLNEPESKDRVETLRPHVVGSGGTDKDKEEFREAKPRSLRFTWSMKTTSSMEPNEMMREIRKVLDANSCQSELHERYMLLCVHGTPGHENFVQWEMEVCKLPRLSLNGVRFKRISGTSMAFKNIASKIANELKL

Cc1c[nH]c(-c2cnc(NCCNc3ccc(C#N)cn3)nc2-c2ccc(Cl)cc2Cl)n1 [CHIR99021]
phosphorylation level of eIF2α-51S ([1]; MEFs, 20 μM, 1 hr, versus DMSO control): decreased the phosphorylation level of eIF2α-^51S
levels of phosphorylated eIF2α-51S ([1]; at low concentrations): substantially lowering the levels of phosphorylated eIF2α-^51S
activity in inhibiting the phosphorylation of eIF2α [1]: high activity

COc1cc2ncnc(Nc3ccc(F)c(Cl)c3)c2cc1OCCCN1CCOCC1 [Gefitinib]
phosphorylation level of eIF2α-51S ([1]; MEFs, 40 μM, 1 hr, versus DMSO control): needs a higher concentration than CHIR99021 to achieve the similar effect
activity in inhibiting the phosphorylation of eIF2α [1]: low activity

CC(C)C[C@@H](C=O)NC(=O)[C@H](CC(C)C)NC(=O)[C@H](CC(C)C)NC(=O)OCc1ccccc1 [MG132] (Cbz-Leu-Leu-Leu-aldehyde)
level of the ATF4 protein ([2]; MEF cells treated with MG132): increased the level of the ATF4 protein
levels of phosphorylated MARK2-595T ([2]; MEF cells treated with MG132): substantial increase
levels of phosphorylated eIF2α-51S ([2]; MEF cells treated with MG132): corresponding increase
time at which phosphorylation of eIF2α-51S peaked ([2]; MEFs, MG132 20 μM time course): around 4 h
interaction between PKCδ and HSP90 [3]: completely abolished the interaction between PKCδ and HSP90

Cn1cc(C2=C(c3ccc(Cl)cc3Cl)C(=O)NC2=O)c2ccccc21 [SB216763]
phosphorylation of eIF2α-51S ([1]; MEFs, 20 μM, 1 hr, versus DMSO control, FIG. 21A): substantially reduces the phosphorylation of eIF2α-^51S
increase in the levels of phosphorylated eIF2α-51S in response to MG132 ([1]; cell co-treatment with MG132): substantially diminished the increase
activity in inhibiting the phosphorylation of eIF2α [1]: high activity for inhibiting eIF2α phosphorylation
activity in inhibiting the phosphorylation of eIF2α ([1]; listed as SB-216763): high activity
MARK kinase function [4]: inhibited MARK kinase function

O=[As]O [sodium arsenite]
phosphorylation of MARK2-595T [2, 5]: able to induce the phosphorylation
phosphorylation of eIF2α-51S [2, 5]: able to induce the phosphorylation

tunicamycin
phosphorylation of MARK2-595T ([2]; MEFs, tunicamycin 24 μg/ml, 2 h): no effect on the phosphorylation of MARK2-^595T
phosphorylation of eIF2α-51S ([2]; WT and 4-KO MEFs, tunicamycin 24 μg/ml, 2 h): induced the phosphorylation of eIF2α-^51S in WT MEFs but not in the cells lacking the 4 previously known kinases
